From PubChem BioAssay (NCI)
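Results reflect a 48-hour exposure of cells in 96-well plates to compound at five concentrations. The concentration for 50% growth inhibition is given as GI50. TGI marks complete inhibition of growth.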

Experiments:
Experiment in all cases: DTP human tumour cell line panel, 48 h
[1] = tested on: U251 CNS
[2] = tested on: SK-OV-3 ovarian
[3] = tested on: TK-10 renal
[4] = tested on: SK-MEL-5 melanoma
[5] = tested on: HL-60(TB) leukemia
[6] = tested on: CCRF-CEM leukemia
[7] = tested on: MOLT-4 leukemia
[8] = tested on: SNB-75 CNS
[9] = tested on: RXF 393 renal
[10] = tested on: SNB-19 CNS

Row | Compound | TGI [1] [µM] | TGI [2] [µM] | TGI [3] [µM] | TGI [4] [µM] | TGI [5] [µM] | TGI [6] [µM] | TGI [7] [µM] | TGI [8] [µM] | TGI [9] [µM] | TGI [10] [µM] | GI50 [1] [µM] | GI50 [2] [µM] | GI50 [3] [µM] | GI50 [4] [µM] | GI50 [5] [µM] | GI50 [6] [µM] | GI50 [7] [µM] | GI50 [8] [µM] | GI50 [9] [µM] | GI50 [10] [µM]
1 | Cc1cccc(C)c1NC(=O)CCc1nnc2s/c(=C\c3ccc(Cl)cc3)c(=O)n12 | > 100 | > 100 | > 100 | > 100 | > 100 | > 100 | > 100 | > 100 | > 100 | > 100 | – | – | – | – | – | – | – | – | – | –
2 | c1cc(OCCN2CCCCC2)ccc1CNc1ccc2nc(CCC3CCCCC3)[nH]c2c1 | 2.94 | 4.18 | 8.26 | 3.01 | 3.78 | 8.34 | 6.2 | 4.08 | 3.49 | 10.4 | 1.49 | 2.07 | 2.9 | 1.63 | 1.79 | 1.97 | 2.01 | 1.62 | 1.5 | 3.05
